{"source": "patent US8026231B2", "about": "“Aminothiolester compounds, pharmaceutical and cosmetic compositions containing same and uses thereof” (CNRS, priority 2000, dated 2011)", "key": {"BAF3-bcl2 G21 cells": {"system": "BAF3-bcl2 G21 cells", "test": "Apoptosis induction (DNA fragmentation) in BAF3-bcl2 clone G21, 24 h", "format": "cell-based, mouse", "experimental": "(§1) The BAF3-bcl2 cells correspond to BAF3 cells (mouse lymphocyte cells) tranfected with the bcl2 gene. Among these cells, four lines known as H16, G18, B14 and G21 overexpress the bcl2 gene.\n(§2) Whereas the BAF3-b0 cells undergo apoptosis (more than 80% of the cells) in the absence of interleukin 3 (IL3) in 16 hours [according to Collins, M. K. L., Marvel, J., Malde, P. & Lopez-Rivas, A., J. Exp. Med. 176, 1043-1051, (1992)], the BAF3-bcl2 cells show no sign of apoptosis in the absence of IL3. They are thus apoptosis-resistant.\n(§3) The procedure which was used is as follows: • The BAF3-b0 or BAF3-bcl2 cells, cultured in the presence of IL3, were labelled by a method adapted from that disclosed in Wright, S. et al., J. of Cell. Biochem. 48, 344-355, (1992).\n(§4) 10^5 cells/ml were incubated with 4.62 KBq.ml^−1 [^3H]-thymidine for 40 hours at 37° C. After two washes with culture medium, 2.5×10^6 cells were cultured in the presence of the test compound.\n(§5) After incubating for 24 hours, these cells were recovered by centrifugation at 400×g for 5 minutes and washed 3 times with PBS buffer. The cells recovered in the pellet were lysed in 2 ml of 0.1% Triton X-100, 20 mM EDTA, 5 mM Tris pH 8 and centrifuged at 30 000×g at 4° C. for 30 minutes.\n(§6) The supernatants were recovered and the pellets dissolved in 0.3 ml of 0.5N NaOH.\n(§7) Aliquots of the culture medium (1 ml), of the supernatant (0.3 ml) and of the dissolved pellet (0.1 ml) were assayed in a scintillation counter.\n(§8) The percentage of DNA fragments is calculated in the following way:\n(§9) The percentage of fragmentation of the DNA is a direct measure of the apoptosis which the cells have undergone."}, "[1]": {"system": "normal human prostate cells", "test": "Combination of two compounds of the invention on normal human prostate cells", "format": "cell-based", "details": "2 μM", "experimental": "10^5 normal human prostate cells or 10^5 cancerous human prostate cells (DU145) are incubated in various wells of a microplate in 1 ml of culture medium.\nThe compounds are added 4 hours after placing the cells in the wells.\nAfter 72 hours, the cells are removed at different times. The DU145 cells or the normal cells are washed twice with PBS and recovered directly with 0.1M sodium chloride.\nThe effect on the growth of the DU145 cells or the normal cells is measured by protein assay according to the Lowry method (Lowry, O. H., Rosenbrough, N. J., Farr, A. L. and Randall, J. Biol. Chem. 193, 265-275, (1951)) and DNA assay by the Hoechst method (West, D. C., Sattar, A. and Kumar, S., Anal. Biochem. 147, 289-295, (1985))."}, "BAF3-bcl2 G18 cells": {"system": "BAF3-bcl2 G18 cells", "test": "Apoptosis induction (DNA fragmentation) in BAF3-bcl2 clone G18, 24 h", "format": "cell-based, mouse", "experimental": "as §1, §2, §3, §4, §5, §6, §7, §8, §9"}, "DU145 cells": {"system": "DU145 cells", "test": "Combination of Example 1 and Metmetlico on the growth of DU145 cells", "format": "cell-based, human", "experimental": "The cells used correspond to metastatic cells of human prostate cancer DU145. 10^5 DU145 cells are incubated in the various wells of a microplate in 1 ml of culture medium. The test compounds are added 4 hours after placing the cells in the wells. After 72 hours, the cells are removed at different times. The cells are washed twice with PBS and recovered directly with 0.1M sodium chloride. The effect on the growth of DU145 cells is measured by protein assay according to the Lowry method (Lowry, O. H., Rosenbrough, […]. and Randall, J. Biol. Chem. 193, 265-275, (1951)) and DNA assay by the Hoechst method (West, […]. and Kumar, S., Anal. Biochem. 147, 289-295, (1985)). The test compounds are the compound of Example 1, metmetlico and a mixture thereof."}, "bcl2 H16 cells": {"system": "bcl2 H16 cells", "test": "DNA fragmentation of bcl2 H16 cells, 6 h incubation", "format": "cell-based, mouse", "experimental": "as §1, §3, §4, §5, §6, §7, §8, §9\nThe procedure for the test given in Table 4 below is identical to the previous procedure except that the incubation time is 6 hours instead of 24 hours: […]"}}}
{"smiles": "CSC(=O)C#CC(C)(C)N(C)C", "note": "[Example 1, S-methyl 4-dimethyl-amino-4-methyl-2-pentynethioate]", "values": [{"measurement": "DNA fragmentation (%)", "setting": "BAF3-bcl2 G21 cells; G21, 1 μM", "result": 0, "unit": "%"}, {"measurement": "DNA fragmentation (%)", "setting": "BAF3-bcl2 G21 cells; G21, 2 μM", "result": 5.8, "unit": "%"}, {"measurement": "DNA fragmentation (%)", "setting": "BAF3-bcl2 G21 cells; G21, 4 μM", "result": 29.3, "unit": "%"}, {"measurement": "DNA fragmentation (%)", "setting": "BAF3-bcl2 G21 cells; G21, 8 μM", "result": 71.8, "unit": "%"}, {"measurement": "% Inhibition of normal human prostate cells", "setting": "[1]", "result": 3.7, "unit": "%"}, {"measurement": "DNA fragmentation (%)", "setting": "BAF3-bcl2 G18 cells; G18, 1 μM", "result": 0.6, "unit": "%"}, {"measurement": "DNA fragmentation (%)", "setting": "BAF3-bcl2 G18 cells; G18, 2 μM", "result": 7.3, "unit": "%"}, {"measurement": "DNA fragmentation (%)", "setting": "BAF3-bcl2 G18 cells; G18, 4 μM", "result": 52.7, "unit": "%"}, {"measurement": "DNA fragmentation (%)", "setting": "BAF3-bcl2 G18 cells; G18, 8 μM", "result": 84.3, "unit": "%"}, {"measurement": "% Inhibition of growth of the DU145 cells", "setting": "DU145 cells; 2 μM", "result": 5.8, "unit": "%"}, {"measurement": "% Inhibition of growth of the DU145 cells", "setting": "DU145 cells; 3 μM", "result": 16.1, "unit": "%"}, {"measurement": "% Inhibition of growth of the DU145 cells", "setting": "DU145 cells; 4 μM", "result": 22.4, "unit": "%"}, {"measurement": "% fragmentation of the DNA of the bcl2 H16 cells", "setting": "bcl2 H16 cells; 50 μM", "result": 2.15, "unit": "%"}, {"measurement": "% fragmentation of the DNA of the bcl2 H16 cells", "setting": "bcl2 H16 cells; 100 μM", "result": 0, "unit": "%"}, {"measurement": "% fragmentation of the DNA of the bcl2 H16 cells", "setting": "bcl2 H16 cells; 200 μM", "result": 30.4, "unit": "%"}, {"measurement": "% fragmentation of the DNA of the bcl2 H16 cells", "setting": "bcl2 H16 cells; 400 μM", "result": 83.8, "unit": "%"}, {"measurement": "% fragmentation of the DNA of the bcl2 H16 cells", "setting": "bcl2 H16 cells; 600 μM", "result": 81.5, "unit": "%"}]}
